{"source": "patent US20230218555A1", "about": "“CREATINE, ITS DERIVATIVES, COMPOSITIONS AND METHODS OF USE THEREOF” (priority 2021, published 2023)", "format_in_all_cases": "in vivo, human", "key": {"[1]": {"system": "muscular pain of upper right back, dystonia", "experiment": "Example 23: pain of dystonia, local subcutaneous injections", "protocol": "Five sites of the upper back were injected with 0.3 ml C15 in aqueous solution using insulin syringes with 30G short needles. […] At that time the injections were repeated just before […] departed on a trip to Europe."}, "erythematous pharyngitis": {"system": "erythematous pharyngitis", "experiment": "Example 31: sore throat, spray mist", "protocol": "A subject, upon arising from bed in the morning, was acutely aware of a severe sore throat. […] They were provided, in a 2 oz spray container, a 3% aqueous solution of C15 that they sprayed into their moth toward the inflamed pharynx. […] Repeated spraying during the day were followed by longer pain free intervals. They reported that at 7 PM the last pain free interval had been 1 hour. Next morning the pharyngitis had improved, and the subject used spray mist less frequently."}, "poison ivy dermatitis": {"system": "poison ivy dermatitis", "experiment": "Example 36: poison ivy dermatitis itch", "protocol": "A subject developed poison ivy dermatitis of their forearms about 18 hours after pruning bushes. Itch was intense at 24 hours when they applied C15 10% in a lotion made up of hydrophilic ointment USP 35% diluted with 65% water. […] Duration of itch relief next was for about 10 hours and the next for 12-15 hours. Relief was longer and longer from subsequent applications. Signs and symptoms of dermatitis were gone at 4 days."}, "sprained left ankle": {"system": "sprained left ankle", "experiment": "Example 27: ankle sprain pain", "conditions": "4% in WP 82, 2-3 times daily for 4-5 days", "excerpt": "A subject sprained their left ankle while hiking."}, "[2]": {"system": "osteoarthritis of the knees", "experiment": "Example 24: osteoarthritis, knees", "excerpt": "Several days later, a repeated application of the same procedure gave the same results."}, "thermal burns": {"system": "thermal burns", "experiment": "Example 22: pain of thermal burns, topical", "conditions": "for relief of burn pain: person", "excerpt": "One subject spilled boiling hot water on their left hand. Within a couple hours pain was intense. They then applied 4% solution of N-acetyl ethyl creatinate (C15) dissolved in water: ethanol: propylene glycol 5:3:2 which they had been using to relieve pain over a lateral meniscus. […] Such application was continued over the next several days until the burn pain disappeared spontaneously.\nA second subject burned their forearm where they accidentally touched the hot oven rack. They immediately applied 9% solution of N-acetyl ethyl creatinate (C15) dissolved in water: ethanol: propylene glycol 5:3:2 that they were using for topical treatment of their rheumatoid arthritis. […] Repeated application were applied over the next 3 days, until the burn pain spontaneously ceased."}, "[3]": {"system": "burning itch induced by Mucuna pruriens spicules", "experiment": "Example 38: burning itch induced by Mucuna pruriens", "conditions": "10% in lotion", "protocol": "Pods with beans were obtained from Afro Caribe Botanica, 16 separate specimens. Small round brushes marketed for interdental cleaning were used to collect spicules from the pods. Application to both volar and extensor surfaces of the forearm were made by intense rubbing of the skin with such brush containing spicules. Burning itch developed within 5-7 minutes. […] Participants in this study included the following; • 1. A person. • 2. A person. • 3. A person. • 4. A person. • 5. A person."}, "post trauma pain": {"system": "post trauma pain", "experiment": "Example 33: post trauma pain of hand", "excerpt": "A subject was provided a 9% solution of C15 in WEP 532 for possible use against itch or pain. Several weeks later they sent by e-mail the following message:\n“Yesterday I slammed the top of my hand accidentally against a door. That really hurt and I could barely move my hand. Started to ice it and then realized that I had decided to keep one bottle of the pain medicine here at the shore. […] Like a miracle. Iced it after as I could tell a welt was forming. Again at bedtime I put a little of the pain med on it in case the earlier application wore off and iced again as it was a bit swollen. Looked red and maybe a little swollen this morning but no pain!”"}, "[4]": {"system": "post trauma pain in the pinned ankle", "experiment": "Example 34: ankle pain after surgical insertion of metal screws", "conditions": "prior applications of C15 formulations", "protocol": "A subject with above described post trauma pain at the end of each day experienced painful discomfort in the pinned ankle. […] Complete relief lasted nearly 24 hours. At the end of the next day, the ankle was as painful as the days before. Subject applied 6% C20 in same liquid vehicle."}, "[5]": {"system": "osteoarthritis of multiple joints", "experiment": "Example 18: whole body application", "protocol": "A subject with continually worsening very painful osteoarthritis of multiple joints for 15-16 years prepared the following formulation: […]\nN-Acetyl Ethyl Creatinate (C15): Water: Propylene glycol: Mineral Oil: Sodium lauryl sulfate […].\nAfter taking a morning shower, the entire 40 ml formulation was applied by themself and their assistants to their entire body, except the scalp. […] The subject was without any sense of pain for 4.5 hours when mild painful discomfort in the neck was sensed. Over the next 3 hours pain in all joints returned to usual substantial levels."}}}
{"smiles": "CCOC(=O)CN(C)C(N)=NC(C)=O", "note": "[Compound C15, N-acetyl ethyl creatinate]", "values": [{"measurement": "duration of relief", "setting": "[1]; first injections", "result": 2, "unit": "weeks"}, {"measurement": "extent of pain relief", "setting": "[1]; five sites of upper back injected with 0.3 ml aqueous solution", "result": "Complete relief of pain"}, {"measurement": "time to pain relief", "setting": "[1]; five sites, 0.3 ml", "result": "within the next hour"}, {"measurement": "duration of relief after repeated injections", "setting": "[1]; repeated injections", "result": "lasting beyond two week period"}, {"measurement": "relief of pain", "setting": "erythematous pharyngitis; 3% aqueous solution sprayed toward pharynx", "result": "immediate complete relief of pain"}, {"measurement": "duration of relief, first spraying", "setting": "erythematous pharyngitis; 3% aqueous spray", "result": 25, "unit": "min"}, {"measurement": "last pain free interval at 7 PM", "setting": "erythematous pharyngitis; repeated spraying during the day", "result": 1, "unit": "h"}, {"measurement": "relief of itch", "setting": "poison ivy dermatitis; 10% in lotion (hydrophilic ointment USP 35%, water 65%), forearms", "result": "Relief of itch was immediate"}, {"measurement": "duration of itch relief", "setting": "poison ivy dermatitis; first application", "result": "about 6 hours"}, {"measurement": "time until signs and symptoms of dermatitis were gone", "setting": "poison ivy dermatitis; repeated applications", "result": 4, "unit": "days"}, {"measurement": "duration of itch relief", "setting": "poison ivy dermatitis; second application", "result": "about 10 hours"}, {"measurement": "duration of itch relief", "setting": "poison ivy dermatitis; third application", "result": "12 to 15", "unit": "h"}, {"measurement": "ankle pain at end of treatment", "setting": "sprained left ankle", "result": "no ankle pain was detected"}, {"measurement": "duration of pain relief", "setting": "[2]; 8% in WP 82, even with occlusion, person, severe osteoarthritis", "result": "3 to 4", "unit": "h"}, {"measurement": "extent of pain relief", "setting": "[2]; 8% in WP 82 on gauze wrapping occluded with plastic wrap, overnight, person", "result": "complete relief of pain"}, {"measurement": "duration of complete relief (sleep)", "setting": "[2]; 8% with occlusion overnight", "result": 8, "unit": "h"}, {"measurement": "diminishment of pain after removal in the morning", "setting": "[2]; 8% with occlusion, person", "result": "85-90%"}, {"measurement": "duration of diminishment after removal", "setting": "[2]; 8% with occlusion, person", "result": "7 to 8", "unit": "h"}, {"measurement": "relief of burn pain", "setting": "thermal burns; 4% in water: ethanol: propylene glycol 5:3:2, topical, hand", "result": "immediate relief of the burn pain"}, {"measurement": "duration of relief", "setting": "thermal burns; 4% solution", "result": "4 to 5", "unit": "h"}, {"measurement": "relief of burn pain", "setting": "thermal burns; 9% in water: ethanol: propylene glycol 5:3:2, topical, forearm", "result": "Burn pain was completely instantly relieved"}, {"measurement": "duration of relief", "setting": "thermal burns; 9% solution", "result": "4 to 5", "unit": "h"}, {"measurement": "persistence of relief", "setting": "[3]", "result": "permanent"}, {"measurement": "time to complete relief of itch", "setting": "[3]", "result": "1 to 2", "unit": "min"}, {"measurement": "extent of itch relief", "setting": "[3]; forearm, five participants", "result": "complete relief of itch"}, {"measurement": "relief of pain", "setting": "post trauma pain; 9% in WEP 532, topical to hand", "result": "in a minute or two the pain went away"}, {"measurement": "pain next morning", "setting": "post trauma pain; second application at bedtime", "result": "no pain"}, {"measurement": "extent of pain relief", "setting": "[4]", "result": "substantially relieve the pain but not completely"}, {"measurement": "extent of pain relief", "setting": "[5]; 40 ml formulation applied to entire body except scalp, person", "result": "all pain ceased in all previously painful joints"}, {"measurement": "duration without any sense of pain", "setting": "[5]; whole body application", "result": 4.5, "unit": "h"}, {"measurement": "time to pain relief", "setting": "[5]; whole body application", "result": "about 5 minutes"}]}
